This note sets out measurements from ChEMBL document CHEMBL5649169 (ChemMedChem, 2018).

Assay [1] deals with Transaldolase (Homo sapiens) (UniProt P37837).
Assay [2] has as its target Very long-chain specific acyl-CoA dehydrogenase, mitochondrial (Homo sapiens) (UniProt P49748).
For assay [3], the target named is Thioredoxin reductase 1, cytoplasmic (Homo sapiens) (UniProt Q16881).
The target of assay [4] is Desmoglein-1 (Homo sapiens) (UniProt Q02413).
For assay [5], the target named is Cullin-5 (Homo sapiens) (UniProt Q93034).
Assay [6] deals with Transducin beta-like protein 3 (Homo sapiens) (UniProt Q12788).
Assay [7] is filed under the species Homo sapiens.
For assay [8], the target named is Glutathione S-transferase kappa 1 (Homo sapiens) (UniProt Q9Y2Q3).
Assay [9] has as its target ATP-dependent RNA helicase A (Homo sapiens) (UniProt Q08211).
The species named for assay [10] is Homo sapiens. This is another data set of the same source.
The target in assay [11] is E3 ubiquitin-protein ligase RNF5 (Homo sapiens) (UniProt Q99942).
In assay [12] the target is Translocon-associated protein subunit delta (Homo sapiens) (UniProt P51571).
Note: assay method not described here.

Transducin beta-like protein 3 (Homo sapiens), sequence (Q12788 whole entry): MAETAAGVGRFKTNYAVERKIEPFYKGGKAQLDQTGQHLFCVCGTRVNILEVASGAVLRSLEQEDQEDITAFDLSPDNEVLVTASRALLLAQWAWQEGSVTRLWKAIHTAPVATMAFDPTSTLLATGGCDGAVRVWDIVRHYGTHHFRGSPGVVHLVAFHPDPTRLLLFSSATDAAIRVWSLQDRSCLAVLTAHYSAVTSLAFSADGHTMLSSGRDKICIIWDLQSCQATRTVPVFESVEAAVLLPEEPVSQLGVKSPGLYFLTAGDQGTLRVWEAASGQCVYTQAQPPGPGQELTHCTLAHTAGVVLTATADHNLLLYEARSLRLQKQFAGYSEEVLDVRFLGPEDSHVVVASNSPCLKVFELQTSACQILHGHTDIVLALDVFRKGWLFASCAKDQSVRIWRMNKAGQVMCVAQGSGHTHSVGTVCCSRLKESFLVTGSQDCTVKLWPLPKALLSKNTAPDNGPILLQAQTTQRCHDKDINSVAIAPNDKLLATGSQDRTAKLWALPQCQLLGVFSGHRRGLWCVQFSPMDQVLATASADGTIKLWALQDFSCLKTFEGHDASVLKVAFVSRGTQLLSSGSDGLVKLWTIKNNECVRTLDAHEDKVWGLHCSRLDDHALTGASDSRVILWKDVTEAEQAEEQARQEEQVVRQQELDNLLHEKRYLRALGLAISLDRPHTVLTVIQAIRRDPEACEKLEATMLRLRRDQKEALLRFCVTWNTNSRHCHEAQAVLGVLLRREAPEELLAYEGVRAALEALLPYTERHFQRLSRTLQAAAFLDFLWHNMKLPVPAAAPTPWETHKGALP
Transaldolase (Homo sapiens), sequence (P37837 whole entry): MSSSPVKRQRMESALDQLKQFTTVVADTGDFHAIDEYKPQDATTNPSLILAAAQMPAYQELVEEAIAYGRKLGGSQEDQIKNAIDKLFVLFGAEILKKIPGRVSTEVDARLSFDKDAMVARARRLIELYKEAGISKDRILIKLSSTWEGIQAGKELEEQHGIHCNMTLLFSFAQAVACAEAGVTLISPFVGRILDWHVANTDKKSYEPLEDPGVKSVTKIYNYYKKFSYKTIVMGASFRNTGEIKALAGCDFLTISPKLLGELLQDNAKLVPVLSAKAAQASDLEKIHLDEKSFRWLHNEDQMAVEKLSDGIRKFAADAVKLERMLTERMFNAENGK
Desmoglein-1 (Homo sapiens), sequence (Q02413 whole entry): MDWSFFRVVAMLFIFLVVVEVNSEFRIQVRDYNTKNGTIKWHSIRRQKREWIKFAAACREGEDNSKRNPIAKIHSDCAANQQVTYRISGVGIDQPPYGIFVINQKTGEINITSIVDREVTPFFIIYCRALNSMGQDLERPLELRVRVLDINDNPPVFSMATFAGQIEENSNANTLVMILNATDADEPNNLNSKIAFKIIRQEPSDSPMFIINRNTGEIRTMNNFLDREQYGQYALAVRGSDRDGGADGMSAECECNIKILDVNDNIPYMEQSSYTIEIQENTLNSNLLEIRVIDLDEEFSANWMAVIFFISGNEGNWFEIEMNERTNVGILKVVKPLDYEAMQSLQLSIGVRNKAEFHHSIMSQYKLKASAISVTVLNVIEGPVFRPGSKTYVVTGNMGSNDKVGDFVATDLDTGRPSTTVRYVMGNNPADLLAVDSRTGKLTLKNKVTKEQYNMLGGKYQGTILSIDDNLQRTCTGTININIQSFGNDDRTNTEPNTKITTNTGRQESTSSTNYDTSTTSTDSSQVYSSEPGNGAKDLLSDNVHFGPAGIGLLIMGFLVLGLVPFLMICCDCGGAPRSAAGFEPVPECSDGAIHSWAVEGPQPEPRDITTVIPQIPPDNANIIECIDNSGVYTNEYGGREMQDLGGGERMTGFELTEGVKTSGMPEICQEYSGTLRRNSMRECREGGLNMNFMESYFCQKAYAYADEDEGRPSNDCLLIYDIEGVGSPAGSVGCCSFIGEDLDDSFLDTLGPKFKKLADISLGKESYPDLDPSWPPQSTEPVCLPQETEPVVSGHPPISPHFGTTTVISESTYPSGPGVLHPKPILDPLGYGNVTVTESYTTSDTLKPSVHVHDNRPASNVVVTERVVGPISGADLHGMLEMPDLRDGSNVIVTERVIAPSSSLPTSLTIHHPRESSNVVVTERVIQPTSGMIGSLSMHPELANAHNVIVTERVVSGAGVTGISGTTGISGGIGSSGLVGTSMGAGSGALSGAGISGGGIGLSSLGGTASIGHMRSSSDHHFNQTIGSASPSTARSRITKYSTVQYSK
Very long-chain specific acyl-CoA dehydrogenase, mitochondrial (Homo sapiens), sequence (P49748 whole entry): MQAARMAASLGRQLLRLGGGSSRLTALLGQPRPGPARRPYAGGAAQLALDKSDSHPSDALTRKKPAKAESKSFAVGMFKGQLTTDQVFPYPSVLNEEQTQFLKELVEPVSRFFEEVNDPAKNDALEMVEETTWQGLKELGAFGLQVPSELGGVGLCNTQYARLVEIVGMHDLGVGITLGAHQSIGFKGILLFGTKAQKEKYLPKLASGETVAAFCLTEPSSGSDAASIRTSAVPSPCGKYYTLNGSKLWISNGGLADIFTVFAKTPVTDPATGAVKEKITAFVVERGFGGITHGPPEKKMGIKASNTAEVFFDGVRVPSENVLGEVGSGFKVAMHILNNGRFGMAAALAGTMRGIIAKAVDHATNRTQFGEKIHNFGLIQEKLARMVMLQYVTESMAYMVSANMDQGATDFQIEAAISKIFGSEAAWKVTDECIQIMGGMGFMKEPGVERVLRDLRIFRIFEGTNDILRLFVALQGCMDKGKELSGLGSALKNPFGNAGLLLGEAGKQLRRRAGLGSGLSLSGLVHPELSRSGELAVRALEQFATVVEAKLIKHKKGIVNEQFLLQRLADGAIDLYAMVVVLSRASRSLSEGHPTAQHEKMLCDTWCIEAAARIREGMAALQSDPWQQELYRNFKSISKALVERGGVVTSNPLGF
E3 ubiquitin-protein ligase RNF5 (Homo sapiens), sequence (Q99942 whole entry): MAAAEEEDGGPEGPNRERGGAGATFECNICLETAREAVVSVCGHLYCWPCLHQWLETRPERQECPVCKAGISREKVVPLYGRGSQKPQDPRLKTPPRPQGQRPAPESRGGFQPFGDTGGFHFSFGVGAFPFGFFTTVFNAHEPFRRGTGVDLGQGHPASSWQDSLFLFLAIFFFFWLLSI
Thioredoxin reductase 1, cytoplasmic (Homo sapiens), sequence (Q16881 whole entry): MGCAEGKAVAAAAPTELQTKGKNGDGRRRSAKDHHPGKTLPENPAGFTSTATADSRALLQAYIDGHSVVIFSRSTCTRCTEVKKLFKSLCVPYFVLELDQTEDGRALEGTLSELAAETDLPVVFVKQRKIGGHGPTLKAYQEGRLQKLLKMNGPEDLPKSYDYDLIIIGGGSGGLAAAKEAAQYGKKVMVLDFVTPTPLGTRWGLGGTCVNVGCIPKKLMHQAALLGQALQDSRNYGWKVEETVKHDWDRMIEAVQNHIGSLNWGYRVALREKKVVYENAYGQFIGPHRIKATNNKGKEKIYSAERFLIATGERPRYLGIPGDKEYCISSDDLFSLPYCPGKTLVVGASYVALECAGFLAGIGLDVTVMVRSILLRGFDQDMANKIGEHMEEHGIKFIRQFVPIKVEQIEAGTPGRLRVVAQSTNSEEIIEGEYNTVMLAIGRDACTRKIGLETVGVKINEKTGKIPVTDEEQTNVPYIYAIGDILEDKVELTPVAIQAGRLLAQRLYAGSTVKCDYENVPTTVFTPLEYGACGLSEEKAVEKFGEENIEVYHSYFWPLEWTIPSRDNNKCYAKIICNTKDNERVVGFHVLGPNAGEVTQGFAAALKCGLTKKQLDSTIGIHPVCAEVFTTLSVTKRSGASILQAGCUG
ATP-dependent RNA helicase A (Homo sapiens), sequence (Q08211 whole entry): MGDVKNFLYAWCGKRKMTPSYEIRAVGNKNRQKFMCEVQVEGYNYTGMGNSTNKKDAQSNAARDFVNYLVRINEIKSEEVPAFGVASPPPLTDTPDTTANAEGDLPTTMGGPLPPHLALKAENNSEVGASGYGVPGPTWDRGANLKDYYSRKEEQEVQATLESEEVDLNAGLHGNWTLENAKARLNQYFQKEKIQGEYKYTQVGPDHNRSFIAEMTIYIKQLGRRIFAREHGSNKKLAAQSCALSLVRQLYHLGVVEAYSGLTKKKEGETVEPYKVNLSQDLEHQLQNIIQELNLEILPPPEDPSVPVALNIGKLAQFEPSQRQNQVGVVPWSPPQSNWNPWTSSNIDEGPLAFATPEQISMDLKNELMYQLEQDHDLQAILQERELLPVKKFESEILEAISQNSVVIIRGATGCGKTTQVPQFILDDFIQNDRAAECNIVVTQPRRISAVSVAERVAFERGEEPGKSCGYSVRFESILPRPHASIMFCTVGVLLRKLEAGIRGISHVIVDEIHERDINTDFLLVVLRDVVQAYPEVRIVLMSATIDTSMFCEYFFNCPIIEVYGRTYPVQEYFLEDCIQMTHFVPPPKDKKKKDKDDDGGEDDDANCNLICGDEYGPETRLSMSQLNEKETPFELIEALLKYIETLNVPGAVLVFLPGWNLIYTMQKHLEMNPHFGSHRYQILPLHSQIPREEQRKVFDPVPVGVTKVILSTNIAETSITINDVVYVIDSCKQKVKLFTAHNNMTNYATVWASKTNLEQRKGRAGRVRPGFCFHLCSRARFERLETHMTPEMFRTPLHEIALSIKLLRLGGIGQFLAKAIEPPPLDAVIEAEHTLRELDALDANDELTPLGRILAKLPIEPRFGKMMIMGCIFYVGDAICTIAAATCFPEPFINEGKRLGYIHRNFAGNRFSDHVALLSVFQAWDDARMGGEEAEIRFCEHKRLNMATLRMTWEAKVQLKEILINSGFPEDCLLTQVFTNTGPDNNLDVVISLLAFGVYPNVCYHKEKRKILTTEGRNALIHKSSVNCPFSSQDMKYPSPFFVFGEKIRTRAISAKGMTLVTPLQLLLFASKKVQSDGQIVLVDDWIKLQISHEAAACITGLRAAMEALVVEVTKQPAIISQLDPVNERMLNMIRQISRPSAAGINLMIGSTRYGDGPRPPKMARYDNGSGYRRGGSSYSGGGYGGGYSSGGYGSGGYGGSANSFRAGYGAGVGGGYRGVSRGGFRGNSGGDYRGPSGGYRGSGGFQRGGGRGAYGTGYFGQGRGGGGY

Take `Cc1ccc(C(=O)Nc2cccc(C(F)(F)F)c2)cc1Nc1nc(-c2cccnc2)nc2nn(C)cc12`: the ED50 in assay [1] amounted to 0.359 µM; in [2], 0.051 µM; in assay [3], 0.19 µM.

In the case of `Cc1ccc(C(=O)Nc2cccc(C(F)(F)F)c2)cc1Nc1nc(-c2cccnc2)nc2c1cnn2C`, the ED50 in assay [4] was 47.5 µM; in assay [5], 0.676 µM; in [6], 4.7 µM; in assay [7], 4.42 µM; in assay [8], 6.96 µM; in [9] it was 0.112 µM. Also, the ED50 is 5.28 µM in assay [10], 23.2 µM in assay [11] and 217 µM in assay [12].
